Data reported in patent US20150189884A1, “METHODS OF CONTROLLING INSECTS” (Syngenta Participations AG, priority 2012, published 2015).
Like-named read-outs stand apart in the source and are kept apart here.

Tested on: Anthonomus grandis (Cotton Boll Weevil)
Test: Anthonomus grandis (Cotton Boll Weevil) test on sprayed cotton plants, mortality assessed
Format: in vivo
Conditions: 120 h, read-out: control (mortality assessed)
Procedure: Anthonomus grandis (Cotton Boll Weevil)
Cotton plants are treated (100 mL spray volume) and 10 adult weevils are added to each plant (2 replicates per concentration). 5 days after infestation the mortality is assessed. The following compounds were tested and gave at least 80% control at 50 ppm: B3, B4, C2, C3, C4, E1, E7
Compounds are tested according to the above method.

[1] = 50 ppm, cotton plants treated (100 mL spray volume), 10 adult weevils per plant, 5 days after infestation

C[C@H](NC(=O)C1CC1)c1ccc(C2(C(F)(F)F)CN=C(c3cc(Cl)c(Cl)c(Cl)c3)C2)cc1 (stereo partly drawn) [Compound B3, N-[(1S)-1-[4-[5-(3,4,5-trichlorophenyl)-3-(trifluoromethyl)-2,4-dihydropyrrol-3-yl]phenyl]ethyl]cyclopropanecarboxamide]
mortality at 50 ppm [1]: ≥ 80%

C[C@H](NC(=O)C1CC1)c1ccc(N2CCC(c3cc(C(F)(F)F)cc(C(F)(F)F)c3)(C(F)(F)F)C2)cc1 (stereo partly drawn) [Compound B4, N-[(1S)-1-[4-[3-[3,5-bis(trifluoromethyl)phenyl]-3-(trifluoromethyl)pyrrolidin-1-yl]phenyl]ethyl]cyclopropanecarboxamide]
mortality at 50 ppm [1]: ≥ 80%

N#Cc1cc(C2=NCC(c3cc(Cl)c(Cl)c(Cl)c3)(C(F)(F)F)C2)ccc1-n1cncn1 (centres unmarked) [Compound C2, 2-(1,2,4-triazol-1-yl)-5-[3-(3,4,5-trichlorophenyl)-3-(trifluoromethyl)-2,4-dihydropyrrol-5-yl]benzonitrile]
mortality at 50 ppm [1]: ≥ 80%

N#Cc1cc(C2=NOC(c3cc(Cl)c(F)c(Cl)c3)(C(F)(F)F)C2)ccc1-n1cncn1 (centres unmarked) [Compound C3]
mortality at 50 ppm: ≥ 80%

CCC(=O)NC1CCc2cc(C3=NOC(c4cc(Cl)cc(Cl)c4)(C(F)(F)F)C3)ccc21 (centres unmarked) [Compound E1]
mortality at 50 ppm: ≥ 80%
